In ChEMBL document CHEMBL4411307, “N,N'-diaryl-bishydrazones in a biphenyl platform: Broad spectrum antifungal agents” (Eur J Med Chem, 2019) one finds MIC and Activity data, which are given here for 6 compounds.

Molecules are shown by their SMILES. Converted amounts (≈) assume the structure as drawn. The source made the active and inactive calls. No cut-off for these calls is given here. A value given as a limit tells only on which side of the number the result lay.

Test [1] relates to Candida albicans. Nature of the test: Antifungal activity against fluconazole/ITC-resistant Candida albicans ATCC MYA-1237 measured after 48 hrs by CLSI M27-A3 protocol based method. To be noted: ATCC MYA-1237, 48 h. The format is functional.
In the next test the test system is Aspergillus terreus. Nature of the test: Antifungal activity against Aspergillus terreus ATCC MYA-3633 measured after 48 hrs by CLSI M38-A2 protocol based method. The conditions noted are these: ATCC MYA-3633, 48 h. It counts as functional.
In test [2] the test system is Candida albicans. Description: Antifungal activity against fluconazole/ITC-resistant Candida albicans ATCC 64124 measured after 48 hrs by CLSI M27-A3 protocol based method. It counts as functional. To be noted: ATCC 64124, 48 h.
Test [3] concerns Candida albicans. Nature of the test: Antifungal activity against fluconazole/ITC-susceptible Candida albicans ATCC MYA-2876 measured after 48 hrs by CLSI M27-A3 protocol based method. The format is functional. The conditions noted are these: ATCC MYA-2876, 48 h.
Test [4] deals with Candida albicans. Description: Antifungal activity against fluconazole/ITC-resistant Candida albicans ATCC 90819 measured after 48 hrs by CLSI M27-A3 protocol based method. The format is functional. To be noted: ATCC 90819, 48 h.
In another test the test system is Staphylococcus aureus. Description: Antibacterial activity against methicillin-resistant Staphylococcus aureus. It counts as functional, organism-based.
The test system of another test is Candida parapsilosis. Nature of the test: Antifungal activity against Candida parapsilosis ATCC 22019 measured after 48 hrs by CLSI M27-A3 protocol based method. To be noted: Lodderomyces parapsilosis, ATCC 22019, 48 h. The format is functional.
Test [5] has as its system Candida albicans. Nature of the test: Antifungal activity against fluconazole/ITC-resistant Candida albicans ATCC 10231 measured after 48 hrs by CLSI M27-A3 protocol based method. The format is functional. To be noted: ATCC 10231, 48 h.
In test [6] the test system is Candida albicans. Nature of the test: Antifungal activity against fluconazole/ITC-resistant Candida albicans ATCC MYA-1003 measured after 48 hrs by CLSI M27-A3 protocol based method. The format is functional. The conditions noted are these: ATCC MYA-1003, 48 h.
The subject of a further test is Aspergillus nidulans. Nature of the test: Antifungal activity against Aspergillus nidulans ATCC 38163 measured after 48 hrs by CLSI M38-A2 protocol based method. To be noted: ATCC 38163, 48 h. The format is functional.
The subject of test [7] is Candida albicans. Description: Antifungal activity against fluconazole/ITC-susceptible Candida albicans ATCC MYA-2310 measured after 48 hrs by CLSI M27-A3 protocol based method. The format is functional. The conditions noted are these: ATCC MYA-2310, 48 h.
A further test deals with Listeria monocytogenes. Description: Antibacterial activity against Listeria monocytogenes. The format is functional, organism-based.
The subject of a further test is Nakaseomyces glabratus. Description: Antifungal activity against Candida glabrata ATCC 2001 measured after 48 hrs by CLSI M27-A3 protocol based method. The format is functional. The conditions noted are these: CBS 138, 48 h.
For the next test, the system named is Enterococcus. Nature of the test: Antibacterial activity against vancomycin-resistant Enterococcus. The format is functional, organism-based.
Another test concerns Pichia kudriavzevii. Description: Antifungal activity against Candida krusei ATCC 6258 measured after 48 hrs by CLSI M27-A3 protocol based method. It counts as functional. To be noted: ATCC 6258, 48 h.
For another test, the system named is Aspergillus flavus. Description: Antifungal activity against Aspergillus flavus ATCC MYA-3631 measured after 48 hrs by CLSI M38-A2 protocol based method. It counts as functional. To be noted: ATCC MYA-3631, 48 h.

A word on the MIC: it is the least concentration at which growth counts as inhibited.

Regarding `Fc1cc(F)cc(N/N=C/c2ccc(-c3cccc(/C=N/Nc4cc(F)cc(F)c4)c3)cc2)c1`, the MIC in the test on Candida albicans [1] was 31.3 µg/mL (≈ 67.7 µM); against Aspergillus terreus, above 31.3 µg/mL; against Candida albicans [2], 15.6 µg/mL (≈ 33.7 µM); in the test on Candida albicans [3], 31.3 µg/mL (≈ 67.7 µM); against Candida albicans [4], above 31.3 µg/mL; in the test on Candida parapsilosis it was above 31.3 µg/mL. The minimal inhibitory concentration (MIC) in the test with Candida albicans [5] was 3.9 µg/mL (≈ 8.43 µM); against Candida albicans [6], 31.3 µg/mL (≈ 67.7 µM); in the test with Aspergillus nidulans, above 31.3 µg/mL; against Candida albicans [7], above 31.3 µg/mL; with Nakaseomyces glabratus, above 31.3 µg/mL; against Pichia kudriavzevii it was above 31.3 µg/mL. The same compound had an MIC in the test with Aspergillus flavus above 31.3 µg/mL. The result in the test with Staphylococcus aureus, in the test with Listeria monocytogenes and in the test on Enterococcus was inactive.

Regarding `Fc1cccc(N/N=C/c2ccc(-c3ccc(/C=N/Nc4cccc(F)c4F)cc3)cc2)c1F`, the MIC with Candida albicans [1], against Aspergillus terreus, in the test on Candida albicans [2], in the test on Candida albicans [3], with Candida albicans [4] and with Candida parapsilosis was above 31.3 µg/mL each time. Moreover, the minimum inhibitory concentration (MIC) against Candida albicans [5] was 31.3 µg/mL (≈ 67.7 µM); in the test with Candida albicans [6], above 31.3 µg/mL; in the test with Aspergillus nidulans, above 31.3 µg/mL; in the test on Candida albicans [7] it was above 31.3 µg/mL; in the test on Nakaseomyces glabratus, above 31.3 µg/mL; in the test with Pichia kudriavzevii, above 31.3 µg/mL. For the same compound, in the test with Aspergillus flavus, the MIC is above 31.3 µg/mL. Also, the outcome in the test on Staphylococcus aureus, in the test on Listeria monocytogenes and in the test with Enterococcus was inactive.

As for `Fc1cccc(N/N=C/c2ccc(-c3cccc(/C=N/Nc4cccc(F)c4F)c3)cc2)c1F`, the minimum inhibitory concentration (MIC) in the test with Candida albicans [1], against Aspergillus terreus, with Candida albicans [2], with Candida albicans [3], in the test with Candida albicans [4] and against Candida parapsilosis was above 31.3 µg/mL throughout. For the same compound, the MIC with Candida albicans [5], against Candida albicans [6], in the test with Aspergillus nidulans, in the test with Candida albicans [7], in the test with Nakaseomyces glabratus and against Pichia kudriavzevii was above 31.3 µg/mL in each case. The MIC against Aspergillus flavus is above 31.3 µg/mL. Besides, the result in the test with Staphylococcus aureus, in the test on Listeria monocytogenes and in the test with Enterococcus was inactive.

With `N=C(N)N/N=C/c1ccc(-c2ccc(/C=N/NC(=N)N)cc2)cc1`, the minimal inhibitory concentration (MIC) in the test on Candida albicans [1] was above 31.3 µg/mL; in the test on Aspergillus terreus it was above 31.3 µg/mL; in the test on Candida albicans [2], above 31.3 µg/mL; in the test with Candida albicans [3], above 31.3 µg/mL; against Candida albicans [4], above 31.3 µg/mL; with Candida parapsilosis, 3.9 µg/mL (≈ 12.1 µM). Also, the MIC with Candida albicans [5] is 31.3 µg/mL (≈ 97.1 µM); against Candida albicans [6] it was 15.6 µg/mL (≈ 48.4 µM); in the test on Aspergillus nidulans it was above 31.3 µg/mL; with Candida albicans [7], above 31.3 µg/mL; against Nakaseomyces glabratus it was above 31.3 µg/mL; against Pichia kudriavzevii, 15.6 µg/mL (≈ 48.4 µM). In the test on Aspergillus flavus, the MIC is above 31.3 µg/mL.

Take `CC[C@H](C)C[C@H](C)CCCCCCCCC(=O)N[C@H]1C[C@@H](O)[C@@H](NCCN)NC(=O)[C@@H]2[C@@H](O)CCN2C(=O)[C@H]([C@H](O)CCN)NC(=O)[C@H]([C@H](O)[C@@H](O)c2ccc(O)cc2)NC(=O)[C@@H]2C[C@@H](O)CN2C(=O)[C@H]([C@@H](C)O)NC1=O` [CASPOFUNGIN]: the minimal inhibitory concentration (MIC) was 0.24 µg/mL (≈ 0.22 µM) with Candida albicans [1]; above 31.3 µg/mL with Aspergillus terreus; 0.24 µg/mL (≈ 0.22 µM) in the test with Candida albicans [2]; 0.06 µg/mL (≈ 0.0549 µM) in the test on Candida albicans [3]; 0.12 µg/mL (≈ 0.11 µM) against Candida albicans [4]; 1.95 µg/mL (≈ 1.78 µM) in the test with Candida parapsilosis. In addition, the minimal inhibitory concentration (MIC) in the test on Candida albicans [5] is 0.975 µg/mL (≈ 0.892 µM); against Candida albicans [6], 0.48 µg/mL (≈ 0.439 µM); in the test on Aspergillus nidulans it was above 31.3 µg/mL; in the test on Candida albicans [7] it was 0.12 µg/mL (≈ 0.11 µM); against Nakaseomyces glabratus it was 0.06 µg/mL (≈ 0.0549 µM); against Pichia kudriavzevii, 0.48 µg/mL (≈ 0.439 µM). The same compound showed a minimum inhibitory concentration (MIC) against Aspergillus flavus above 31.3 µg/mL.

As to `COc1cccc(N/N=C(\C)c2ccc(-c3ccc(/C(C)=N/Nc4cccc(OC)c4)cc3)cc2)c1`, the minimal inhibitory concentration (MIC) in the test on Candida albicans [1] is 31.3 µg/mL (≈ 65.4 µM); against Aspergillus terreus it was above 31.3 µg/mL; against Candida albicans [2], 0.98 µg/mL (≈ 2.05 µM); against Candida albicans [3], 15.6 µg/mL (≈ 32.6 µM); in the test on Candida albicans [4], 31.3 µg/mL (≈ 65.4 µM); against Candida parapsilosis, 15.6 µg/mL (≈ 32.6 µM). Moreover, the MIC against Candida albicans [5] was 0.98 µg/mL (≈ 2.05 µM); in the test with Candida albicans [6], 3.9 µg/mL (≈ 8.15 µM); in the test on Aspergillus nidulans it was above 31.3 µg/mL; against Candida albicans [7] it was 15.6 µg/mL (≈ 32.6 µM); with Nakaseomyces glabratus, 15.6 µg/mL (≈ 32.6 µM); with Pichia kudriavzevii it was 0.98 µg/mL (≈ 2.05 µM). Further, the MIC against Aspergillus flavus is above 31.3 µg/mL. The outcome with Staphylococcus aureus, with Listeria monocytogenes and with Enterococcus was inactive.
